“Also recorded” adds a separate entry of the source.
What was measured:
[1] = system: MuRF1 central fragment; assay: Differential scanning fluorimetry (DSF) of MuRF1 central fragment; type: binding; conditions: 100 μM compound, 1% DMSO in PBS, 75 μM protein; 65.8° C. with 1% DMSO alone
Experimental: The effect of compound MyoMed-946 on MuRF1 protein stability was determined in vitro by differential scanning fluorimetry (DSF).
“MuRF1 central fragment” was expressed as previously described (Mrosek M et al., FASEB J, 2007, 21, 1383-1392) and used in DSF experiments at 75 μM final concentration. Compound MyoMed-946 was diluted from a 10 mM stock in DMSO to 100 μM in PBS as DSF assay buffer, resulting in a final concentration of 1% DMSO. After 1 hour pre-incubation at room temperature, the aqueous protein solutions were soaked into capillaries and placed into a Prometheus NT.48 nanoDSF device (NanoTemper Technologies, Munich, Germany). Changes in the intrinsic tryptophan or tyrosine fluorescence that occurred after LED laser excitement upon protein unfolding in a thermal gradient was detected at 330 nm and 350 nm, respectively. […] The first derivative of the fluorescence wavelength ratio of 350/330 nm upon thermal protein unfolding was used to calculate transition midpoint (Tm) of single and multiple transition states.

[2] = system: Mrps5 (mitochondrial ribosomal protein 5); assay: Proteomic analysis of diaphragm tissue, CHF mice; type: in vivo, Mus musculus; conditions: CHF mice with vs without compound feeding, P=0.02
Experimental: To analyze the molecular mechanisms underlying the observed physiological changes and benefits of MyoMed-946-treated mice suffering from CHF, comparative quantitative proteomic analysis as well as Western blot analysis of diaphragm tissue from sham, CHF, and CHF+MyoMed-946-treated mice were performed.
Mass spectrometry-based proteomic analysis was performed at the DZHK Core Facility, Bad Nauheim, Germany. Obtained MS raw data were processed by MaxQuant (1.6.0.1) using the Andromeda search engine and the Uniprot database for Mus musculus (as of 20 Apr. 2017). At a false discovery rate of 1% (both peptide and protein levels), >2600 protein groups were identified. The reductive dimethylation protocol employed (see Boersema et al., Nat Protoc, 2009, 4, 484-494) yielded pairwise relative comparative quantitation (ratios) between proteins from CHF+MyoMed-946, CHF, and sham conditions, which were statistically queried for significant differences using standard statistical tests. Several proteins were identified to be statistically different (e.g. TNNT3, Timm9, Ccdc5, Adi1, Ptges3, and Ndufa3).

[3] = system: monocrotaline (MCT)-treated C57BL/6 mice; assay: Pulmonary hypertension mouse model, test series 1; type: in vivo; conditions: MCT+compound chow vs MCT
Experimental: The animal experiments were approved by the Regierungspräsidium Karlsruhe (35-9185.81/G-141/13) and the Regierungspräsidium Leipzig (TVV 40/16). Three groups of mice were included in this study, including: 1) saline-treated (sham; n=20); 2) monocrotaline (MCT)-treated fed normal chow (MCT; n=27); and 3) MCT-treated fed MuRF1 inhibitor chow (MCT+compound; n=27). Briefly, C57BL/6 mice (aged 8 weeks) were subcutaneously injected weekly with either MCT (600 mg/kg) or a matched volume of saline for 6 weeks, a time period where MCT is known to induce cardiac cachexia due to pulmonary hypertension and subsequent RV dysfunction rather than anorexia, as described by Ahn et al., PLoS One, 2013, 8:e62702. Mice were exposed to identical conditions under a 12:12 h light/dark cycle with food and water provided ad libitum. The MCT+compound group started receiving the inhibitor chow 1 week prior to the MCT injections, whereas the sham and MCT groups were fed an identical chow but without the addition of the selected compound. Body weight was recorded every week for each mouse. […]
For histological evaluation, paraffin-embedded TA muscle sections (3 μm) were stained with H&E and fiber cross-sectional area (CSA) and then evaluated by imaging software (Analysis 3.0, Olympus Soft Imaging Solutions GmbH, Munster, Germany). […]

[4] = system: MAFbx, MuRF1, CARP, BAX, eIF2B-delta expression; assay: Western blot analysis of TA muscle, MCT mice; type: in vivo
Text: The Western blot analyses consisted of frozen TA muscle samples being homogenized in RIPA buffer (50 mmol/L Tris, 150 mmol/L sodium chloride, 1 mmol/L EDTA, 1% NP-40, 0.25% sodium-deoxycholate, 0.1% SDS, 1% Triton X-100; pH 7.4) or relax buffer (90 mmol/L HEPES, 126 mmol/L potassium chloride, 1 mmol/L MgCl, 50 mmol/L EGTA, 8 mmol/L ATP, 10 mmol/1 Creatinephosphate; pH 7.4) containing a protease inhibitor mix (Inhibitor mix M, Serva, Heidelberg, Germany), sonicated, and centrifuged at 16,000×g for 5 min. Protein concentration of the supernatant was determined (BCA assay, Pierce, Bonn, Germany) and aliquots (5-20 μg) were separated by SDS-polyacrylamide gel electrophoresis. Proteins were transferred to a polyvinylidene fluoride membrane (PVDF) and incubated overnight at 4° C. with the following primary antibodies: MAFbx ( 1/2000, Eurogentec, Seraing, Belgium), MuRF1 ( 1/1000, Myomedix Ltd., Neckargemünd, Germany), CARP ( 1/500, Myomedix Ltd., Neckargemünd, Germany), BAX ( 1/1000; Abcam, Cambridge, UK), and eIF2B-delta ( 1/200; Santa Cruz Biotechnolgy, Santa Cruz, USA). Membranes were subsequently incubated with a horseradish peroxidase-conjugated secondary antibody and specific bands visualized by enzymatic chemiluminescence (Super Signal West Pico, Thermo Fisher Scientific Inc., Bonn, Germany) and densitometry quantified using a 1D scan software package (Scanalytics Inc., Rockville, USA). Blots were then normalized to the loading control GAPDH ( 1/30000; HyTest Ltd, Turku, Finland). All data are presented as fold change relative to sham.

With Cc1cc(=O)oc2cc(OCc3ccc(C(=O)OCC(=O)NC(=O)NCc4ccco4)cc3)ccc12 [MyoMed-946, [2-(2-furylmethylcarbamoylamino)-2-oxo-ethyl] 4-[(4-methyl-2-oxo-chromen-7-yl)oxymethyl]benzoate] the “main Tm of MuRF1 central fragment” value [1] was 52.5 °C, the “Mrps5 protein level (proteomics)” value [2] was “significantly up-regulated” and the right ventricle hypertrophy ([3]; 6 weeks MCT) was “attenuated; also recorded: attenuates the development of right ventricle hypertrophy”. For the same molecule, the “loss of skeletal muscle mass (EDL, soleus, TA wet weight, TA fiber CSA)” value ([3]; most obvious effect in TA muscle) was “protected”, the “increase in CARP expression” value ([4]; MCT+compound vs MCT) was “attenuated; also recorded: abolished” and the “increased protein expression of MuRF1” value ([4]; MCT+compound vs MCT) was “attenuated; also recorded: prevented”. The “protein expression of MAFBx” value ([4]; MCT+compound vs MCT) was “No changes are detected; also recorded: no effects were observed”, the “expression of eIF2B (delta subunit)” value ([4]; MCT+compound vs MCT, confirmed by immunoblotting) was “upregulation” and the “expression of BAX” value ([4]; MCT+compound, upregulated in MCT vs sham) was “normalized”.

Source: US12331042B2, “Compounds suitable for the treatment and prophylaxis of muscle wasting and other conditions” (priority 2019, dated 2025)
